Here are results for 32 compounds from patent US20240293380A1, “PROTEASE INHIBITORS AND METHODS OF USE” (priority 2021, published 2024).

pEC50, pIC50: −log10 of the molar value.

One test deals with SARS-CoV-2 3CLpro (Severe acute respiratory syndrome coronavirus 2 (2019-nCoV) (SARS-CoV-2), UniProt P0DTD1).
Experiment: not given
The test is classed as biochemical.
Details: not given
The term pIC50 denotes the negative decadic logarithm of the IC50, by convention in mol/L. High values mean a small IC50, low ones a large IC50. `O=C(Cc1cncc2ccccc12)N(Cc1cc(F)cc(Cl)c1)c1ccc(-c2c[nH]cn2)cc1` [Compound 12, N-[(3-chloro-5-fluoro-phenyl)methyl]-N-[4-(1H-imidazol-4-yl)phenyl]-2-(4-isoquinolyl)acetamide] had a negative-log IC50 (pIC50) of 7.82.
On the same count and under the same terms, the figure for `O=C(Cc1cnc2ccccn12)N(Cc1cc(F)cc(Cl)c1)c1ccc(-c2c[nH]cn2)cc1` [Compound 11, N-[(3-chloro-5-fluoro-phenyl)methyl]-2-imidazo[1,2-a]pyridin-3-yl-N-[4-(1H-imidazol-4-yl)phenyl]acetamide] is 7.19.
The same measure, in the same setting: as for `O=C(Cc1cncc(F)c1)N(Cc1cc(F)cc(Cl)c1)c1ccc(-c2c[nH]cn2)cc1` [Compound 69], the figure is 6.66; as for `CC(C)(C)NC(=O)C(c1cc(F)cc(F)c1)N(C(=O)Cc1cncc2ccccc12)c1ccc(C2=CCNC2)cc1` (stereo not drawn) [Compound 63], 5.99.
`Cc1ccncc1CC(=O)N(Cc1cc(F)cc(Cl)c1)c1ccc(-c2c[nH]cn2)cc1` [Compound 77] gave a negative logarithm of the IC50 (pIC50) of 6.87.
Same read-out and setting: the figure for `Cc1cncc(CC(=O)N(Cc2cc(F)cc(F)c2)c2ccc(-c3c[nH]cn3)cc2)c1` [Compound 66] is 6.99; for `O=C(Cc1nnc2ccccn12)N(Cc1cccc(Cl)c1)c1ccc(-c2cn[nH]c2)cc1` [Compound 1, N-[(3-chlorophenyl)methyl]-N-[4-(1H-pyrazol-4-yl)phenyl]-2-([1,2,4]triazolo[4,3-a]pyridin-3-yl)acetamide] it is 6.44.
`O=C(Cc1cncc2ccccc12)N(Cc1cc(F)cc(OC(F)(F)F)c1)c1ccc(-c2c[nH]cn2)cc1` [Compound 61]: the negative-log IC50 (pIC50) is 6.95. This pIC50 lies 0.51 log units higher than the previous one.
Same read-out and setting: as for `O=C(Cc1cncc2ccccc12)N(Cc1cc(Cl)ccc1F)c1ccc(-c2c[nH]cn2)cc1` [Compound 15], the figure is 6.51; as for `CC(c1cc(F)cc(F)c1)N(C(=O)Cc1cncc2ccccc12)c1ccc(-c2c[nH]cn2)cc1` (stereo not drawn) [Compound 30], 6.94; as for `Cc1ccc2nnc(CC(=O)N(Cc3cc(F)cc(F)c3)c3ccc(-c4c[nH]cn4)cc3)n2n1` [Compound 41], 6.22.
`O=C(Cc1cccnn1)N(Cc1cc(F)cc(F)c1)c1ccc(-c2c[nH]cn2)cc1` [Compound 31]: the pIC50 was 6.30. The pIC50 values of the last two compounds are within 0.2 log units of each other.
`O=C(Cc1nnc2ccc(F)cn12)N(Cc1cc(F)cc(Cl)c1)c1ccc(-c2c[nH]cn2)cc1` [Compound 10, N-[(3-chloro-5-fluoro-phenyl)methyl]-2-(6-fluoro-[1,2,4]triazolo[4,3-a]pyridin-3-yl)-N-[4-(1H-imidazol-4-yl)phenyl]acetamide] had a pIC50 of 7.11.
`Cc1cncc(CC(=O)N(Cc2cc(F)cc(Cl)c2)c2ccc(-c3c[nH]cn3)cc2)c1` [Compound 70] showed a pIC50 of 7.08.
`COc1ccc(Cl)cc1CN(C(=O)Cc1cncc2ccccc12)c1ccc(-c2c[nH]cn2)cc1` [Compound 18] showed a pIC50 of 6.72.
The same measure, in the same setting: as for `O=C1CN(c2ccc(N(Cc3cc(F)cc(F)c3)C(=O)Cc3cncc4ccccc34)cc2)CCN1` [Compound 36], the figure is 6.43.
The same measure, in the same setting: the figure for `O=C(Cc1cncc(Br)c1)N(Cc1cc(F)cc(F)c1)c1ccc(-c2c[nH]cn2)cc1` [Compound 65] is 6.73.
Still for that read-out and setting: as for `O=C(Cc1cncc2ccccc12)N(Cc1cncc(F)c1)c1ccc(C2=CCNC2)cc1` [Compound 68], the figure is 6.22.
On to `O=C(Cc1cncc2ccccc12)N(Cc1cncc(F)c1)c1ccc(C2CNC2)cc1` [Compound 60], for which the negative logarithm of the IC50 (pIC50) is 6.71. Against the preceding compound, the pIC50 is 0.49 log units higher.
Same read-out and setting: as for `O=C(Cc1nncc2ccccc12)N(Cc1cc(F)cc(Cl)c1)c1ccc(C2CNC2)cc1` [Compound 82, N-(4-(azetidin-3-yl)phenyl)-N-(3-chloro-5-fluorobenzyl)-2-(phthalazin-1-yl)acetamide], the figure is 7.15; as for `CC(C)CN(C(=O)Cc1nnc2ccccn12)c1ccc(-c2c[nH]cn2)cc1` [Compound 46], 5.09.
Still for that read-out and setting: the figure for `O=C(Cc1cncc2ccccc12)N(Cc1cncc(C(F)(F)F)c1)c1ccc(-c2c[nH]cn2)cc1` [Compound 39] is 7.09.
The same measure, in the same setting: the figure for `O=C(Cc1cncc2ccccc12)N(Cc1cc(F)cc(F)c1)c1ccc(-c2c[nH]cn2)cc1` [Compound 28] is 7.28; for `O=C(Cc1noc2ccccc12)N(Cc1cc(F)cc(Cl)c1)c1ccc(-c2c[nH]cn2)cc1` [Compound 49] it is 6.08.
For the compound `O=C(Cc1nnc(-c2ccccc2)s1)N(Cc1cccc(Cl)c1)c1ccc(-c2cn[nH]c2)cc1` [Compound 8, N-[(3-chlorophenyl)methyl]-2-(5-phenyl-1,3,4-thiadiazol-2-yl)-N-[4-(1H-pyrazol-4-yl)phenyl]acetamide], the “SARS-CoV-2 IC50 (nM)” value is “Inactive”.
For `O=C(Cc1cncc2ccccc12)N(Cc1cc(F)cc(Cl)c1)c1ccc(C2=CCNC2)cc1` [Compound 57], the negative logarithm of the IC50 (pIC50) is 7.09.
`O=C(Cc1cncc2ccccc12)N(Cc1ccc(Cl)c(F)c1)c1ccc(-c2c[nH]cn2)cc1` [Compound 58] showed a pIC50 of 5.96.
For the compound `O=C(Cc1nnc(-c2ccccc2)o1)N(Cc1cccc(Cl)c1)c1ccc(-c2cn[nH]c2)cc1` [Compound 7, N-[(3-chlorophenyl)methyl]-2-(5-phenyl-1,3,4-oxadiazol-2-yl)-N-[4-(1H-pyrazol-4-yl)phenyl]acetamide], the “SARS-CoV-2 IC50 (nM)” value is on record as “Inactive”.
Compound `O=C(Cc1cnc2ccccn12)N(Cc1cccc(Cl)c1)c1ccc(-c2cn[nH]c2)cc1` [Compound 4, N-[(3-chlorophenyl)methyl]-2-imidazo[1,2-a]pyridin-3-yl-N-[4-(1H-pyrazol-4-yl)phenyl]acetamide] had a pIC50 of 5.94.
On the same count and under the same terms, as for `O=C1Nc2ccccc2C1CC(=O)N(Cc1cc(F)cc(Cl)c1)c1ccc(-c2c[nH]cn2)cc1` (stereo not drawn) [Compound 59], the figure is 5.21.
As to `COc1ccncc1CC(=O)N(Cc1cc(F)cc(Cl)c1)c1ccc(-c2c[nH]cn2)cc1` [Compound 78], the pIC50 was 6.65.
On the same count and under the same terms, as for `O=C(Cc1cnccc1C(F)(F)F)N(Cc1cc(F)cc(Cl)c1)c1ccc(-c2c[nH]cn2)cc1` [Compound 75], the figure is 6.00.

Another test deals with SARS-CoV-2. The test is described as follows: microbe, parasite or virus in culture. It counts as cell-based, SARS-Related Coronavirus 2, Isolate USA-WA1/2020. As to conditions: Severe acute respiratory syndrome coronavirus 2, Vero C1008.
In general, pEC50 refers to −log10 of the EC50, conventionally taken in molar units. Take `O=C(Cc1cncc2ccccc12)N(Cc1cc(F)cc(Cl)c1)c1ccc(-c2c[nH]cn2)cc1` [Compound 12, N-[(3-chloro-5-fluoro-phenyl)methyl]-N-[4-(1H-imidazol-4-yl)phenyl]-2-(4-isoquinolyl)acetamide]: the negative-log EC50 (pEC50) was 5.94.
